Test system: neutrophil elastase release
Test: assay for neutrophil elastase release (titration)
Type: cell-based
Details: compared with conventionally synthesized molecule and native sequence IL-8
Description: Application of the native chemical ligation method to the total synthesis of a protein molecule was illustrated by the preparation of human interleukin 8 (IL-8). (M. Baggiolini, et al., FEBS Lett. (1989): vol. 307, p 97; I. Clark-Lewis, et al., J. Biol. Chem. (1994): vol. 269, p 16075 (1994); I. Clark-Lewis, Biochemistry (1991): vol. 30, p 3128; and K. Rajarathnam, et al., (1994): Biochemistry, (1994): vol. 29, p 1689.) The 72 amino acid polypeptide chain contains four Cys residues, which form two functionally critical disulfide bridges in the native protein molecule. The two unprotected synthetic peptide segments reacted cleanly to give the full length polypeptide chain in reduced form without further chemical manipulation (9). This successful ligation was particularly significant because the 33- and 39-residue IL-8 segments each contained two Cys residues, and together encompassed 18 of the 20 genetically encoded amino acids found in proteins. The purified product was folded and oxidized as previously described, to give IL-8 with a mass precisely 4 daltons less than that of the original ligation product, indicating the formation of two disulfide bonds. The properties of this folded product were identical to those of previously studied authentic IL-8 samples.

Substance	maximal response in neutrophil elastase release
corresponding molecule obtained by conventional synthesis: [Ala33]IL-8 obtained by conventional synthesis, used as comparator	indistinguishable and identical to native sequence IL-8
[Ala33]IL-8: 72 amino acid human interleukin 8 analogue made by native chemical ligation of IL-8(1-33)αCOSBn and IL-8(34-72), then folded by air oxidation	indistinguishable and identical to native sequence IL-8

From patent US7408026B1, “Synthesis of proteins by native chemical ligation” (The Scripps Research Institute, priority 1998, dated 2008)
